Literature values, collected in US11419828B2, “Hair care terpinen 4-ol (T4O) composition for the treatment of demodex mites on scalp” (priority 2021, dated 2022).

Key:
[1] = at levels up to 75%
Demodex mites = details: 75% alcohol, 10% povidone-iodine, erythromycin
Demodex = details: 38% concentration of terpinen-4-ol, over a period of 4 weeks

OCCCO [Propanediol, Propanediol 1,3]
potential to irritate or sensitize skin [1]: low potential to irritate or sensitize skin

CCO [alcohol]
Demodex mites' resistance to antiseptic agent (Demodex mites): resistant

CC[C@H]1OC(=O)[C@H](C)[C@@H](O[C@H]2C[C@@](C)(OC)[C@@H](O)[C@H](C)O2)[C@H](C)[C@@H](O[C@@H]2O[C@H](C)C[C@H](N(C)C)[C@H]2O)[C@](C)(O)C[C@@H](C)C(=O)[C@H](C)[C@@H](O)[C@]1(C)O [erythromycin]
Demodex mites' resistance to antiseptic agent (Demodex mites): resistant

CC1=CCC(O)(C(C)C)CC1 (centres unmarked) [terpinen-4-ol, Terpinen-4-ol]
reduction of Demodex (Demodex): reduce Demodex effectively

povidone-iodine
Demodex mites' resistance to antiseptic agent (Demodex mites): resistant
